From US8912220B2 (priority 2009, dated 2014) come the findings set out here.

SMILES strings stand for the structures.

In the assay the target is human 5-HT2C(VSV) (Homo sapiens, UniProt P28335, I156V/I160V/N158S). The assay is described as follows: cell-based.
human 5-HT2C(VSV), sequence (P28335 33-458 I156V/N158S/I160V limits assumed): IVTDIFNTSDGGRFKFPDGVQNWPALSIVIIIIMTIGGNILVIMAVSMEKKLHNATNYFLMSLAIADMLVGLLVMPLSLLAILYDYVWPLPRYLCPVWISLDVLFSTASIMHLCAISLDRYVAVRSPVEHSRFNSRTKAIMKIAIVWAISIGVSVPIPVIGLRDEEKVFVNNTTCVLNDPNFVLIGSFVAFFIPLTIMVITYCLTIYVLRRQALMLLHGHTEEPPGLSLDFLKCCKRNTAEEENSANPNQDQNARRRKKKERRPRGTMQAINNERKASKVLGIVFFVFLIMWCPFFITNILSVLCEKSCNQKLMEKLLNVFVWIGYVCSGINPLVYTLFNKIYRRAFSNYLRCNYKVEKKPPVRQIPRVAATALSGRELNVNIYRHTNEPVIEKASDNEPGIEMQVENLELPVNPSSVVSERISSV
With `CN(C)CCc1cn(Cc2ccccc2)c2c(F)ccc(OCc3ccccc3)c12` [7-2, 2-(1-benzyl-4-(benzyloxy)-7-fluoro-1H-indol-3-yl)-N,N-dimethylethanamine], the EC50 is 500 to 10000 nM. `COc1ccc(Nc2ccccc2)c2c1c(CCN(C)C)cn2C` [6-12, 3-(2-dimethylaminoethyl)-4-methoxy-1-methyl-N-phenyl-1H-indol-7-amine] gave a 50% effective concentration (EC50) of 1 to 500 nM.

In the case of `CCn1cc(CCN(C)C)c2c(OCc3ccccc3C(F)(F)F)cc(F)cc21` [1-13b, 2-(1-ethyl-6-fluoro-4-(2-(trifluoromethyl)benzyloxy)-1H-indol-3-yl)-N,N-dimethylethanamine], the EC50 fell in the range of 500 to 10000 nM. Molecule `CCn1cc(CCNc2ccccc2)c2c(O)ccc(F)c21` [11-7, 1-ethyl-7-fluoro-3-(2-(phenylamino)ethyl)-1H-indol-4-ol] registered an EC50 of 500 to 10000 nM.

As to `NCCc1cn(CC(N)=O)c2ccc(F)c(O)c12` [19-7, 2-(3-(2-aminoethyl)-5-fluoro-4-hydroxy-1H-indol-1-yl)acetamide], the EC50 was under 10000 nM. In the case of `CNCCc1cn(C)c2ccc(F)c(OCC(O)c3ccccc3Cl)c12` (centres unmarked) [33-37, 1-(2-chlorophenyl)-2-(5-fluoro-1-methyl-3-(2-(methylamino)ethyl)-1H-indol-4-yloxy)ethanol] it was 1 to 500 nM.

`CNCCc1cn(C)c2ccc(F)c(OCCc3ccccc3Cl)c12` [33-19, 2-(4-(2-chlorophenethoxy)-5-fluoro-1-methyl-1H-indol-3-yl)-N-methylethanamine] displayed an EC50 of 500 to 10000 nM. Take `CN(CCc1cn(C)c2ccc(F)c(OCc3ccccc3C#N)c12)Cc1ccccc1C#N` [35-2, 2-((3-(2-((2-cyanobenzyl)(methyl)amino)ethyl)-5-fluoro-1-methyl-1H-indol-4-yloxy)methyl)benzonitrile]: the EC50 is 500 to 10000 nM. For the molecule `CCn1cc(CCN(C)C)c2c(OCc3ccc(Cl)cc3)cc(F)cc21` [1-10b, 2-(4-(4-chlorobenzyloxy)-1-ethyl-6-fluoro-1H-indol-3-yl)-N,N-dimethylethanamine], the EC50 lay within 500 to 10000 nM. In the case of `CCOc1c(F)ccc2c1c(CCNCc1cccc(C)c1)cn2C` [30-20, 2-(4-ethoxy-5-fluoro-1-methyl-1H-indol-3-yl)-N-(3-methylbenzyl)ethanamine] it was 1 to 500 nM; in that of `CCn1cc(CCN(C)C)c2c(OCc3ccc(F)cc3)cc(F)cc21` [1-14b, 2-(1-ethyl-6-fluoro-4-(4-fluorobenzyloxy)-1H-indol-3-yl)-N,N-dimethylethanamine], 1 to 500 nM.

`COc1c(F)ccc2c1c(CCN1CCCC1C(N)=O)cn2C` (centres unmarked) [17-9, 1-(2-(5-fluoro-4-methoxy-1-methyl-1H-indol-3-yl)ethyl)pyrrolidine-2-carboxamide] registered an EC50 of 500 to 10000 nM. Take `CNCCc1cn(C)c2cc(F)cc(OCc3cccc(Cl)c3)c12` [33-46, 2-(4-(3-chlorobenzyloxy)-6-fluoro-1-methyl-1H-indol-3-yl)-N-methylethanamine]: the EC50 fell in the range of 1 to 500 nM. Regarding `CN(C)CCc1cn(Cc2ccc3ccccc3c2)c2c(F)ccc(OCc3ccccc3)c12` [7-6, 2-(4-(benzyloxy)-7-fluoro-1-(naphthalen-2-ylmethyl)-1H-indol-3-yl)-N,N-dimethylethanamine], the EC50 lay in the range of 1 to 500 nM.

As to `CCn1cc(CCNC(C)c2ccccc2)c2c(OC)ccc(F)c21` (centres unmarked) [20-8, 2-(1-ethyl-7-fluoro-4-methoxy-1H-indol-3-yl)-N-(1-phenylethyl)ethanamine], the EC50 was 1 to 500 nM. The molecule `CCn1cc(CCNCc2ccccc2Cl)c2c(OC)ccc(F)c21` [20-10, N-(2-chlorobenzyl)-2-(1-ethyl-7-fluoro-4-methoxy-1H-indol-3-yl)ethanamine] had an EC50 of 1 to 500 nM.

As to `COC(=O)/C=C/c1ccc(OC)c2c(CCN(C)C)cn(C)c12` [25-2, (E)-methyl 3-(3-(2-(dimethylamino)ethyl)-4-methoxy-1-methyl-1H-indol-7-yl)acrylate], the EC50 fell in the range of 1 to 500 nM. Molecule `CCOc1c(F)ccc2c1c(CCN1CCCC1)cn2C` [30-29, 4-ethoxy-5-fluoro-1-methyl-3-(2-(pyrrolidin-1-yl)ethyl)-1H-indole] came in with an EC50 of 1 to 500 nM. In the case of `CCn1cc(CCN(C)C)c2c(OCc3ccc(OC)cc3)cc(F)cc21` [1-15b, 2-(1-ethyl-6-fluoro-4-(4-methoxybenzyloxy)-1H-indol-3-yl)-N,N-dimethylethanamine] it was 1 to 500 nM. For `CCn1cc(CCN(C)C)c2c(OCc3cccc(C(F)(F)F)c3)cc(F)cc21` [1-16b, 2-(1-ethyl-6-fluoro-4-(3-(trifluoromethyl)benzyloxy)-1H-indol-3-yl)-N,N-dimethylethanamine] the value was 500 to 10000 nM; for `CCn1cc(CCN(C)C)c2c(OC)c(CCc3nc4ccccc4[nH]3)cc(F)c21` [29-4, 2-(5-(2-(1H-benzo[d]imidazol-2-yl)ethyl)-1-ethyl-7-fluoro-4-methoxy-1H-indol-3-yl)-N,N-dimethylethanamine], 1 to 500 nM. For `CCn1cc(CCN(C)C)c2c(Oc3ccccc3[N+](=O)[O-])ccc(F)c21` [2-2, 2-(1-ethyl-7-fluoro-4-(2-nitrophenoxy)-1H-indol-3-yl)-N,N-dimethylethanamine] the value was 500 to 10000 nM; for `CN(C)CCc1cn(C)c2ccc(F)c(OCCc3ccccc3)c12` [18-2, 2-(5-fluoro-1-methyl-4-phenethoxy-1H-indol-3-yl)-N,N-dimethylethanamine], 1 to 500 nM; for `CCn1cc(CCN(C)C)c2c(OC)cc(-c3ccccc3)cc21` [36-6, 2-(1-ethyl-4-methoxy-6-phenyl-1H-indol-3-yl)-N,N-dimethylethanamine], 500 to 10000 nM. `CNCCc1cn(C)c2ccc(F)c(OCc3cccc4cccnc34)c12` [33-13, 2-(5-fluoro-1-methyl-4-(quinolin-8-ylmethoxy)-1H-indol-3-yl)-N-methylethanamine] returned an EC50 of 1 to 500 nM.

On to `CCOc1c(F)ccc2c1c(CCNC1CCc3ccccc31)cn2C` (centres unmarked) [30-19, N-(2-(4-ethoxy-5-fluoro-1-methyl-1H-indol-3-yl)ethyl)-2,3-dihydro-1H-inden-1-amine], for which the 50% effective concentration (EC50) lay in the range of 1 to 500 nM. As to `CNCCc1cn(C)c2ccc(F)c(OCc3ccc(Cl)cc3Cl)c12` [33-48, 2-(4-(2,4-dichlorobenzyloxy)-5-fluoro-1-methyl-1H-indol-3-yl)-N-methylethanamine], the EC50 was under 10000 nM. Regarding `CCn1cc(C2CCCN(C)C2)c2c(O)cc(F)cc21` (centres unmarked) [38-6, 1-ethyl-6-fluoro-3-(1-methylpiperidin-3-yl)-1H-indol-4-ol], the EC50 is 500 to 10000 nM. `CCn1cc(CCN(C)C)c2c(Oc3ccccc3)cc(F)cc21` [32-2, 2-(1-ethyl-6-fluoro-4-phenoxy-1H-indol-3-yl)-N,N-dimethylethanamine] gave an EC50 of 500 to 10000 nM. For `COc1ccc(-c2ccco2)c2c1c(CCN(C)C)cn2C` [6-8, 2-(7-(furan-2-yl)-4-methoxy-1-methyl-1H-indol-3-yl)-N,N-dimethylethanamine] the value was 500 to 10000 nM; for `COc1ccc(F)c2c1c(CCN1CCCC1)cn2C` [11-10, 7-fluoro-4-methoxy-1-methyl-3-(2-(pyrrolidin-1-yl)ethyl)-1H-indole], 1 to 500 nM; for `COc1ccc(-c2ccsc2)c2c1c(CCN(C)C)cn2C` [6-13, 2-(4-methoxy-1-methyl-7-(thiophen-3-yl)-1H-indol-3-yl)-N,N-dimethylethanamine], 500 to 10000 nM.

What is called EC50 is the midpoint of the concentration-response curve. A higher EC50 goes with a less potent agent.
